Experimental data published in patent US20120196918A1, “PREVENTING ISLET INFLAMMATION AND DYSFUNCTION AND MAINTAINING PROPER GLUCOSE LEVELS BY CONTROLLING eIF5A AND ITS HYPUSINATION” (priority 2009, published 2012).

Columns and labels:
INS-1 cells [1] = experiment: Cell cycle analysis of INS-1 cells (propidium iodide cytometry); type: cell-based
Description: (§1) Because GC7 is known to be inactivated by the action amine oxidases, which are abundant in serum, typical studies with GC7 in the literature have used aminoguanidine to inhibit amine oxidases (16). […] To rule out possible adverse effects of GC7 on cell viability, quantitative 2 color fluorescence analysis of live (calcein-AM-positive) and dead (ethidium homodimer-1-positive) cells were performed using fluorescence cytometry.
(§2) For flow cytometry studies, INS-1 cells (serum starved or pretreated with GC7 as indicated in the figures) were stained with calcein-AM and ethidium homodimer 1 (Live/Dead® kit, Invitrogen) for 30 minutes, and 30,000 cells/sample were analyzed for green (living cells) and red (dead cells) fluorescence using a FACS Calibur (BD bioscience) instrument. For cell cycle analysis, 10^6 cells were washed in PBS and fixed in ice-cold 70% ethanol for 1 hour. After washing in PBS, cells were re-suspended in Guava cell cycle reagent (Millipore) and incubated at room temperature for 30 minutes. Intercalation of propidium iodide into cellular DNA was quantitated using a FACS Calibur instrument and the data analyzed for cell cycle status using Modfit software.

Nos2 mRNA = experiment: Nuclear export of Nos2 mRNA, subcellular fractionation of cytokine-treated INS-1 cells; type: cell-based, rat; settings: cytokine-treated; GC7 100 μM overnight or leptomycin B 20 ng/ml 3 h
Description: Subcellular fractionation studies: Nuclear and cytoplasmic fractions of 1×10^6 cytokine-treated INS-1 cells exposed to vehicle, leptomycin B (20 ng/ml), or GC7 (100 μM) were prepared using the method of Dignam, et al. (76). Total RNA was isolated from nuclear and cytoplasmic fractions using the RNeasy® RNA isolation kit (Qiagen).
Quantitative RT-PCR: Five micrograms of total RNA from islets or INS-1 cells were reverse-transcribed as detailed previously (77). cDNA was subjected to quantitative PCR using SYBR Green-based technology and published primers for mouse Ins1/2 pre-mRNA (78) and QuantiTech® primers (Qiagen) for all other mouse genes. The Assay on Demand® kit (Applied Biosystems) was used to amplify rat genes in INS-1 cells and human genes in human islets. Thermal cycling was performed according to manufacturer's instructions, and the identity of each PCR product was verified by automated sequencing. All samples were corrected for total input RNA as quantitated by an Experion® (Bio-Rad) bioanalyzer. All data represent the average of triplicate determinations from at least 3 independent experiments.

INS-1 cells [2] = experiment: Live/dead two-colour fluorescence cytometry of INS-1 cells; type: cell-based, rat
Description: as §1, §2

## NCCCCCCCN=C(N)N [GC7]
INS-1 cells [1]; 3 days GC7 exposure
  cell cycle progression: cell cycle block was clearly apparent
INS-1 cells [1]; overnight GC7, any concentration
  cell cycle progression (G1-S): no significant effect on cell cycle progression
Nos2 mRNA
  distribution of mRNAs between nuclear and cytoplasmic fractions: relative nuclear retention of Nos2 mRNA
INS-1 cells [2]; 125 μM GC7, 3 days exposure
  percentage of dead cells: 70%
INS-1 cells [2]; GC7 0 to 125 μM, overnight exposure, unaffected by concentration
  percentage of dead INS-1 cells: 4-5%
